The values below come from patent US20110092476A1, “Bicycloheteroaryl compounds as P2X7 modulators and uses thereof” (Renovis, Inc., priority 2006, published 2011).

One may read the IC50 as the midpoint of a concentration-inhibition curve. The low end stands for higher potency, the high end for lower potency.

The assay has as its target T1, P2X7 receptor (Homo sapiens, UniProt Q99572).
T1 construct: host or cells: THP-1 cells differentiated with LPS and IFN-γ
T1 sequence (Q99572 1-595): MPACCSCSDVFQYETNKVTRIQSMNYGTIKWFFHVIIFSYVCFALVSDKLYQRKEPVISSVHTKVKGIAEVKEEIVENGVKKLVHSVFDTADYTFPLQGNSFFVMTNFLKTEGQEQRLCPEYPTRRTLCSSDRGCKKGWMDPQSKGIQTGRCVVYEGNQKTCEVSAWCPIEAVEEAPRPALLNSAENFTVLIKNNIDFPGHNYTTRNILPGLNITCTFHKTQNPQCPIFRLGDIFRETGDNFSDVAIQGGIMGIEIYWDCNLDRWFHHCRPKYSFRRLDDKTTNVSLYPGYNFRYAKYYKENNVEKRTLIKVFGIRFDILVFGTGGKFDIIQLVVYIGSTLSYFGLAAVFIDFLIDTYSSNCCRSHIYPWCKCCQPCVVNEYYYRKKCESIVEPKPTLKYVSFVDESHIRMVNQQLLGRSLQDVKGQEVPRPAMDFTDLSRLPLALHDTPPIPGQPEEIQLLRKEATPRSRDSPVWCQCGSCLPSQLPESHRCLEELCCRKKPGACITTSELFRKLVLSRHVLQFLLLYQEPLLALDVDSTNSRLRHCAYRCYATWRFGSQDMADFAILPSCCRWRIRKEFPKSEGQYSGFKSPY
Briefly: IL-1β release assay in differentiated THP-1 cells stimulated with BzATP (Example 9). The format is cell-based. As to conditions: BzATP 250 uM; for inhibition at 0.1 µM / inhibition at 0.3 µM: differentiated THP-1 cells, read-out: IL-1β % Inhib. @ 0.3 or 0.1 uM. The method, boiled down:
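THP-1 cells differentiated 16 h with 100 ng/mL LPS and 100 ng/mL IFN-γ, primed 2 h with fresh LPS, pretreated 30 min with compound, then stimulated 45 min with 250 uM BzATP (final). Supernatant IL-1β measured by ELISA; background-adjusted percent inhibition fitted to a four-parameter logistic for IC50.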

Like-named read-outs stand apart in the source and are kept apart here.

For `CC(O)Cn1ccc2c(NC(=O)c3cccc4c3OCCO4)cccc2c1=O` (stereo not shown) [Compound 170], the inhibition at 0.1 µM (0.1 μM compound (symbols *)) is 26 to 50%.

As to `COc1ccc(CC(=O)Nc2cccc3c(=O)n(CCO)ccc23)cc1Br` [Compound 66], the inhibition at 0.3 µM (0.3 μM compound (symbols +)) was above 76%.

`CC(O)Cn1ccc2c(NC(=O)Cc3ccccc3Cl)cccc2c1=O` (stereo not shown) [Compound 154]: the inhibition at 0.1 µM (0.1 μM compound (symbols *)) lay in the range of 0 to 25%.

`Cc1ccc(CCC(=O)Nc2cccc3c(=O)n(CC(C)O)ccc23)c(C)c1` (stereo not shown) [Compound 184]: the inhibition at 0.1 µM (0.1 μM compound (symbols *)) is 0 to 25%.

With `C[C@H](C(N)=O)n1ccc2c(NC(=O)Cc3ccccn3)cccc2c1=O` [Compound 309], for the setting “0.3 μM compound, "+" symbols”, the inhibition at 0.3 µM is 0 to 25%.

In the case of `COc1ccccc1CC(=O)Nc1cccc2c(=O)n(CC(C)(C)O)ccc12` [Compound 209], the inhibition at 0.1 µM (0.1 μM compound, "*" symbols) was in the range of 0 to 25%.

As for `CCOc1ccc(CC(=O)Nc2cccc3c(=O)n(CC4(O)CCCCC4)ccc23)cc1` [Compound 34], the inhibition at 0.3 µM (0.3 μM compound (symbols +)) fell in the range of 0 to 25%.

As for `CC(O)Cn1ccc2c(NC(=O)CCc3ccc4c(c3)OCO4)cccc2c1=O` (stereo not shown) [Compound 134], the inhibition at 0.1 µM (0.1 μM compound (symbols *)) is 0 to 25%.

In the case of `C[C@@H](CO)n1ccc2c(NC(=O)Cc3ccc(F)c(C(F)(F)F)c3)cccc2c1=O` [Compound 338], where the note is “0.3 μM compound, "+" symbols”, the inhibition at 0.3 µM is above 76%.

With `COc1ccc(CC(=O)Nc2cccc3c(=O)n(CC(C)(C)O)ccc23)cc1` [Compound 214], the inhibition at 0.1 µM (0.1 μM compound, "*" symbols) lay in the range of 0 to 25%.

Regarding `CC(CO)n1ccc2c(NC(=O)c3ccc4c(c3)OCCCO4)cccc2c1=O` (stereo not shown) [Compound 117], the inhibition at 0.1 µM (0.1 μM compound (symbols *)) was 0 to 25%.

Regarding `CC(O)Cn1ccc2c(NC(=O)CCCc3ccccc3)cccc2c1=O` (stereo not shown) [Compound 163], the inhibition at 0.1 µM (0.1 μM compound (symbols *)) is 0 to 25%.

For the compound `CC(O)Cn1ccc2c(NC(=O)c3ccccc3Cl)cccc2c1=O` (stereo not shown) [Compound 136], the inhibition at 0.1 µM (0.1 μM compound (symbols *)) was 0 to 25%.

Turning to `O=C(Cc1ccc(Cl)cc1C(F)(F)F)Nc1cccc2c(=O)n(C(CO)CO)ccc12` [Compound 228], the inhibition at 0.3 µM (0.3 μM compound, "+" symbols) lay in the range of 51 to 75%.

`O=C(Cc1cccc(C(F)(F)F)c1F)Nc1c(Cl)ccc2c(=O)n(CCO)ccc12` [Compound 387]: for the setting “0.3 μM compound, "+" symbols”, the inhibition at 0.3 µM is above 76%.

For `CC(C)(O)Cn1ccc2c(NC(=O)Cc3cccc4ccccc34)cccc2c1=O` [Compound 205], the inhibition at 0.1 µM (0.1 μM compound, "*" symbols) was 0 to 25%.

As for `COc1cccc(CCC(=O)Nc2cccc3c(=O)n(CC(C)O)ccc23)c1` (stereo not shown) [Compound 128], the inhibition at 0.1 µM (0.1 μM compound (symbols *)) is 0 to 25%.

On to `COc1ccc(CC(=O)Nc2cccc3c(=O)n(CC(C)O)ccc23)cc1C` (stereo not shown) [Compound 177], for which the inhibition at 0.1 µM (0.1 μM compound (symbols *)) is 0 to 25%.

In the case of `C[C@@H](CO)n1ccc2c(NC(=O)Cc3ccc(F)c(Cl)c3)cccc2c1=O` [Compound 331], the inhibition at 0.3 µM (0.3 μM compound, "+" symbols) lay in the range of 51 to 75%.

Turning to `O=C(Cc1ccc(Cl)c(F)c1)Nc1cccc2c(=O)n(CCO)ccc12` [Compound 354], where the note is “0.3 μM compound, "+" symbols”, the inhibition at 0.3 µM is above 76%.

As for `COc1cccc(CCC(=O)Nc2cccc3c(=O)n(C(C)CO)ccc23)c1` (stereo not shown) [Compound 91], for the setting “0.1 μM compound (symbols *)”, the inhibition at 0.1 µM lay within 0 to 25%.

As to `COc1ccc(C(=O)Nc2cccc3c(=O)n(CC(C)O)ccc23)cc1Cl` (stereo not shown) [Compound 131], the inhibition at 0.1 µM (0.1 μM compound (symbols *)) is 0 to 25%.

Take `CCC(C(=O)Nc1cccc2c(=O)n(CCO)ccc12)c1ccccc1` (stereo not shown) [Compound 74]: the inhibition at 0.3 µM (0.3 μM compound (symbols +)) lay in the range of 0 to 25%.

Take `O=C(Nc1cccc2c(=O)n(CC3(O)CCCCC3)ccc12)c1ccc2ccccc2c1` [Compound 27]: the inhibition at 0.3 µM (0.3 μM compound (symbols +)) lay in the range of 0 to 25%.

Turning to `Cc1cccc(CC(=O)Nc2cccc3c(=O)n(CC(C)O)ccc23)c1` (stereo not shown) [Compound 159], the inhibition at 0.1 µM (0.1 μM compound (symbols *)) was 0 to 25%.

As for `CC(CO)n1ccc2c(NC(=O)c3cccc4ccccc34)cccc2c1=O` (stereo not shown) [Compound 106], the inhibition at 0.1 µM (0.1 μM compound (symbols *)) lay in the range of 0 to 25%.

In the case of `COc1ccc(CC(=O)Nc2cccc3c(=O)n(C(C)CO)ccc23)cc1OC` (stereo not shown) [Compound 109], the inhibition at 0.1 µM (0.1 μM compound (symbols *)) lay in the range of 0 to 25%.

For `CC(C(=O)Nc1cccc2c(=O)n(CCO)ccc12)c1ccc(Cl)c(C(F)(F)F)c1` (stereo not shown) [Compound 251], the inhibition at 0.3 µM (0.3 μM compound, "+" symbols) was above 76%.

Regarding `CCOc1ccc(C(=O)Nc2cccc3c(=O)n(CC(C)O)ccc23)c(O)c1` (stereo not shown) [Compound 124], for the setting “0.1 μM compound (symbols *)”, the inhibition at 0.1 µM lay within 0 to 25%.

With `COc1ccc(CCC(=O)Nc2cccc3c(=O)n(CC(C)O)ccc23)cc1` (stereo not shown) [Compound 150], the inhibition at 0.1 µM (0.1 μM compound (symbols *)) was 26 to 50%.

With `C[C@H](C(N)=O)n1ccc2c(NC(=O)Cc3ccc(OC(F)(F)F)cc3)cccc2c1=O` [Compound 311], the inhibition at 0.3 µM (0.3 μM compound, "+" symbols) lay in the range of 51 to 75%. The IC50 (THP-1 cells, IL-1β by ELISA) amounted to 0.15 µM.

Regarding `C[C@H](C(N)=O)n1ccc2c(NC(=O)Cc3ccc(F)c(F)c3F)cccc2c1=O` [Compound 379], where the note is “0.3 μM compound, "+" symbols”, the inhibition at 0.3 µM is above 76%.

In the case of `CC(C)Cc1ccc(C(=O)Nc2cccc3c(=O)n(CC4(O)CCCCC4)ccc23)cc1` [Compound 59], the inhibition at 0.3 µM (0.3 μM compound (symbols +)) fell in the range of 26 to 50%.

Take `CC(C)(O)Cn1ccc2c(NC(=O)c3cc4ccccc4o3)cccc2c1=O` [Compound 217]: the inhibition at 0.1 µM (0.1 μM compound, "*" symbols) lay in the range of 0 to 25%.

Regarding `CCOc1ccccc1CC(=O)Nc1cccc2c(=O)n(CC(C)O)ccc12` (stereo not shown) [Compound 176], the inhibition at 0.1 µM (0.1 μM compound (symbols *)) lay in the range of 0 to 25%.

Turning to `Cc1ccccc1CCC(=O)Nc1cccc2c(=O)n(C(C)CO)ccc12` (stereo not shown) [Compound 90], for the setting “0.1 μM compound (symbols *)”, the inhibition at 0.1 µM was in the range of 26 to 50%.

Consider `COc1ccc(CC(=O)Nc2cccc3c(=O)n(CC4(O)CCCCC4)ccc23)c(OC)c1` [Compound 47], for which the inhibition at 0.3 µM (0.3 μM compound (symbols +)) was 0 to 25%.

In the case of `Cc1ccccc1C(=O)Nc1cccc2c(=O)n(CC(C)(C)O)ccc12` [Compound 200], the inhibition at 0.1 µM (0.1 μM compound, "*" symbols) fell in the range of 0 to 25%.

Turning to `CNCCn1ccc2c(NC(=O)Cc3ccc(Cl)c(Cl)c3)cccc2c1=O` [Compound 234], the inhibition at 0.3 µM (0.3 μM compound, "+" symbols) is 51 to 75%.

Take `COc1ccccc1CC(=O)Nc1cccc2c(=O)n(C(C)CO)ccc12` (stereo not shown) [Compound 107]: the inhibition at 0.1 µM (0.1 μM compound (symbols *)) lay in the range of 0 to 25%.

`COc1cc(OC)cc(C(=O)Nc2cccc3c(=O)n(CC4(O)CCCCC4)ccc23)c1` [Compound 19]: the inhibition at 0.1 µM (0.1 μM compound (symbols *)) fell in the range of 0 to 25%.

For the compound `O=C(Cc1ccc2c(c1)OCCO2)Nc1cccc2c(=O)n(CCO)ccc12` [Compound 63], the inhibition at 0.3 µM (0.3 μM compound (symbols +)) lay within 0 to 25%.

For `C[C@H](C(N)=O)n1ccc2c(NC(=O)Cc3cccc(OC(F)(F)F)c3)cccc2c1=O` [Compound 313], the inhibition at 0.3 µM (0.3 μM compound, "+" symbols) fell in the range of 0 to 25%.

In the case of `C[C@H](C(=O)Nc1cccc2c(=O)n([C@@H](C)CO)ccc12)c1ccc(Cl)c(Cl)c1` [Compound 326], the inhibition at 0.3 µM (0.3 μM compound, "+" symbols) fell in the range of 51 to 75%.

Consider `CC(O)Cn1ccc2c(NC(=O)c3ccc4c(c3)OCCCO4)cccc2c1=O` (stereo not shown) [Compound 171], for which, where the note is “0.1 μM compound (symbols *)”, the inhibition at 0.1 µM was 0 to 25%.

As for `CCOc1cccc(C(=O)Nc2cccc3c(=O)n(CC(C)O)ccc23)c1` (stereo not shown) [Compound 132], the inhibition at 0.1 µM (0.1 μM compound (symbols *)) lay within 0 to 25%.

As to `CNC(=O)[C@@H](CO)n1ccc2c(NC(=O)C(C)c3ccc(Cl)c(Cl)c3)cccc2c1=O` (stereo partly drawn) [Compound 270, (R)-2-{5-[2-(3,4-Dichloro-phenyl)-propionylamino]-1-oxo-1H-isoquinolin-2-yl}-3-hydroxy-N-methyl-propionamide], under “0.3 μM compound, "+" symbols”, the inhibition at 0.3 µM is above 76%.

`COc1ccc(CC(=O)Nc2cccc3c(=O)n(C(C)CO)ccc23)c(OC)c1` (stereo not shown) [Compound 120]: under “0.1 μM compound (symbols *)”, the inhibition at 0.1 µM was in the range of 0 to 25%.

`COc1cc(CC(=O)Nc2cccc3c(=O)n(CC(C)O)ccc23)cc(OC)c1` (stereo not shown) [Compound 166]: the inhibition at 0.1 µM (0.1 μM compound (symbols *)) lay in the range of 0 to 25%.

Regarding `C[C@H](C(N)=O)n1ccc2c(NC(=O)Cc3ccc(-c4ccccc4)cc3)cccc2c1=O` [Compound 289], the inhibition at 0.3 µM (0.3 μM compound, "+" symbols) was above 76%.

Turning to `COc1ccc(C(=O)Nc2cccc3c(=O)n(CC(C)O)ccc23)c(C)c1` (stereo not shown) [Compound 125], for the setting “0.1 μM compound (symbols *)”, the inhibition at 0.1 µM is 0 to 25%.
